Laboratory results from patent US20250199015A1, “CYCLIN-DEPENDENT KINASE 2 INHIBITORS FOR MEDICAL TREATMENT” (INCYCLIX BIO, LLC, priority 2022, published 2025).
Entries after “also recorded” stand apart in the source; their conditions may differ.

Columns and labels:
[1] = tested on: Kuramochi cells; assay: CellTiter Glo cell proliferation assay; format: cell-based, human; conditions: CCNE1 gained, six days
Protocol: Plates were returned to the incubator for six additional days. On day six post dosing, plates were removed and treated with CellTiter Glo reagent following manufacturer's specifications. Plates were incubated 45 minutes at room temperature and run on Biotek luminometer with 1 sec/well detection. Results were converted to Microsoft Excel and transferred to Graphpad Prism for analysis. […] These cell types are distinguished by either gained of cyclin E1 expression or activation (Kuramochi) or intrinsic amplification of cyclin E1 (OVCAR-3, COV318).
The Kuramochi human ovarian carcinoma cell line was grown in RPMI-1640/1× Glutamax/10% fetal bovine serum and the FUOV-1 human ovarian carcinoma cell line was grown in DMEM/F12/1× Glutamax/10% fetal bovine serum and both were plated at 1,000 cells/well in Corning 96 well white wall/clear bottom tissue culture treated plates. […] Plates were removed from incubator at each specified timepoint and treated with CellTiter-Glo (Promega, Inc) following manufacturer specifications. Plates were then read on CLARIOstar luminometer with 1 sec/well integration. Results were converted to Microsoft Excel and transferred to GraphPad Prism for Analysis (FIG. 16A-B).

[2] = tested on: H526 cells; assay: Cell cycle by EdU flow cytometry (nocodazole release, time course, cisplatin combination); format: cell-based, human; conditions: 300 nM
Protocol: The H526 human lung carcinoma cell line was grown in RPMI-1640/1× Glutamax/10% fetal bovine serum and was plated at 200,000 cells/well in Corning 6 well tissue culture treated plates. Cells were incubated at 37° C. for 24 hours prior to addition of 50 ng/mL nocodazole to arrest the cells in G2/M. One plate was untreated for comparison. After 16 hours, the asynchronous well and one synchronized well were collected. […] Cells were incubated with 10 μM EdU for 1 hour prior to collected and were then fixed in 1% paraformaldehyde. Cells were incubated with Pacific blue azide dye as described by Thermo Scientific. Cells were then incubated with FarRed dye and RNase. Cells were analyzed on a BD Celesta and data compiled using FloJo and GraphPad (FIG. 23). Cells survived slightly better with lower nocodazole dose (50 vs 100 ng/mL) but there was still cell death observed, particularly following S phase after release.
The H526 human lung carcinoma cell line was grown in RPMI-1640/1× Glutamax/10% fetal bovine serum and was plated at 200,000 cells/well in Corning 6 cm tissue culture treated plates. […] Cells were treated for the indicated amount of time, with 10 μM EdU added for the last hour of treatment. Cells were collected and fixed in 1% paraformaldehyde. Cells were incubated with Alexa 488 azide dye as described by Thermo Scientific. Cells were then incubated with FarRed dye and RNase. Cells were analyzed on a BD Celesta and data compiled using FloJo and GraphPad (FIG. 24).
The H526 human lung carcinoma cell line was grown in RPMI-1640/1× Glutamax/10% fetal bovine serum and was plated at 200,000 cells/well in Corning 6 cm tissue culture treated plates. Cells were incubated at 37° C. for 24 hours prior to addition of the first treatment. […] Cells were treated to 24 hours post-initial treatment, with 10 μM EdU added at hour 23 (FIG. 28A). Cells were collected and fixed in 1% paraformaldehyde. Cells were incubated with pacific blue azide dye as described by Thermo Scientific. Cells were then incubated with antibody against γ-H2AX at a ratio of 1:50 before incubation with FarRed dye and RNase. Cells were analyzed on a BD Celesta and data compiled using FloJo and GraphPad.

[3] = tested on: CCNE1, CCNE2 in Hs68 cells; assay: Western blot cell cycle proteins; format: cell-based, human; conditions: 24 hours
Protocol: The H69 and H526 human lung carcinoma cell lines were grown in RPMI-1640/1× Glutamax/10% fetal bovine serum while the Hs68 Normal foreskin fibroblast cell line was grown in DMEM-high glucose/1× Glutamax/10% fetal bovine serum. […] Cells were collected by washing each well twice with cold PBS, then scraping cells in the presence of 150 μL cold RIPA with protease and phosphatase inhibitors. Lysates were clarified by centrifugation at 14,000×g for 10 min at 4° C. and supernatants transferred to clean tubes. A BCA assay was performed to determine the protein concentration of each lysate. A total of 30 μg of protein was mixed with sample buffer and reducing agent before being run on a 4-12% SDS-PAGE. Protein was transferred to a nitrocellulose membrane and blocked with LI-COR blocking buffer for 1 hour. Membranes were incubated overnight in primary antibody at 4° C. Following 3 washes with TBS-T, membranes were incubated for 45 minutes in LI-COR secondary antibodies. Following 2 washes in TBS-T, and one TBS wash, membranes were scanned using a LI-COR OdysseyCLx. Image studio was used for image analysis.

[4] = GLP 28-day oral toxicity and toxicokinetics study; format: in vivo, Beagle dogs; conditions: for AUC0-24 / AUC(0-t) / Cmax / Tmax: Beagle, po
Protocol: Nominal dose values and sampling times were used for calculations. Any concentration reported as BLQ (LLOQ<1.0 ng/mL) was set equal to zero. Toxicokinetic analyses included Cmax, Tmax, AUC0-24, t1/2, RA Cmax, and RA AUC0-24. Forty (20 per sex) Beagle dogs were randomly assigned to groups and dosed twice daily (approximately 8 hours+1-hour apart) via oral gavage for 28 consecutive days.
Based on the absence of dose-limiting toxicity, the 28-day highest nonseverely toxic dose (HNSTD) was 250 mg/kg BID (500 mg/kg/day).

[5] = female, dog, in vivo, 20 mg/kg/day
[6] = female, dog, in vivo, 100 mg/kg/day
[7] = female, dog, in vivo, 500 mg/kg/day
[8] = male, dog, in vivo, 100 mg/kg/day
[9] = male, dog, in vivo, 500 mg/kg/day

Q: Which “cell viability compared with palbociclib” value [1] does the source give for `NS(=O)(=O)c1ccc(Nc2ncc3cc4n(c3n2)C2(CCCCC2)C(=O)NN4)cc1` [Compound I] here?
A: potently decreases cell viability; also recorded: at concentrations substantially lower than palbociclib

Q: And the “S phase entry after nocodazole release” value [2]?
A: slower to enter S phase

Q: And the “cells in G1 phase compared with PF-07104091” value ([2]; 24 hours)?
A: Substantially fewer H526 cells treated with Compound I were in G1 phase

Q: And the “cells in G2/M phase compared to control” value ([2]; 24 hours)?
A: increase of cells in G2/M phase

Q: What about the “cells in S phase compared with PF-07104091” value ([2]; 48 hours) of the same compound?
A: substantially fewer H526 cells treated with Compound I were in S phase

Q: And the “cyclin E (CCNE1, CCNE2) levels” value [3]?
A: increase of cyclin E (CCNE1, CCNE2) amplification

Q: What about the tolerability ([4]; PO, up to 28 days, up to 250 mg/kg BID) of the same compound?
A: generally well tolerated; also recorded: well tolerated with no dose-limiting toxicities observed

Q: What about the “28-day NOAEL” value ([4]; dog, in vivo) of the same compound?
A: did not identify a 28-day NOAEL

Q: And the “accumulation after 28 days of BID dosing” value ([4]; dog, in vivo)?
A: Modest accumulation

Q: And the bone marrow cellularity ([4]; dog, in vivo)?
A: moderately decreased bone marrow cellularity

Q: And the AUC0-24 [4, 5]?
A: 1680 ng·h/mL

Q: And the AUC(0-t) ([4]; female, dog, in vivo, 20 mg/kg/day, AUC0-24)?
A: 2600 ng·h/mL

Q: And the Cmax ([4]; female, dog, in vivo, 20 mg/kg/day, Cmax)?
A: 267 ng/mL

Q: And the Tmax [4, 5]?
A: 8.8 h

Q: What about the AUC0-24 [4, 6] of the same compound?
A: 5170 ng·h/mL

Q: And the AUC(0-t) ([4]; female, dog, in vivo, 100 mg/kg/day, AUC0-24)?
A: 9160 ng·h/mL

Q: What about the Cmax ([4]; female, dog, in vivo, 100 mg/kg/day, Cmax) of the same compound?
A: 725 ng/mL

Q: And the Tmax [4, 6]?
A: 10 h

Q: What about the AUC(0-t) ([4]; female, dog, in vivo, 250 mg/kg, plasma AUC0-24) of the same compound?
A: 11700 ng·h/mL

Q: What about the Cmax ([4]; female, dog, in vivo, 250 mg/kg, plasma Cmax) of the same compound?
A: 961 ng/mL

Q: What about the AUC0-24 [4, 7] of the same compound?
A: 11700 ng·h/mL

Q: What about the AUC(0-t) ([4]; female, dog, in vivo, 500 mg/kg/day, AUC0-24) of the same compound?
A: 10100 ng·h/mL

Q: And the Cmax ([4]; female, dog, in vivo, 500 mg/kg/day, Cmax)?
A: 919 ng/mL

Q: And the Tmax [4, 7]?
A: 14 h

Q: What about the AUC(0-t) ([4]; female, dog, in vivo, plasma AUC0-24) of the same compound?
A: 2600 ng·h/mL

Q: And the Cmax ([4]; female, dog, in vivo, plasma Cmax)?
A: 267 ng/mL

Q: What about the AUC0-24 ([4]; male, dog, in vivo, 20 mg/kg/day) of the same compound?
A: 1430 ng·h/mL

Q: And the AUC(0-t) ([4]; male, dog, in vivo, 20 mg/kg/day, AUC0-24)?
A: 2460 ng·h/mL

Q: What about the AUC0-24 [4, 8] of the same compound?
A: 10600 ng·h/mL

Q: And the AUC(0-t) ([4]; male, dog, in vivo, 100 mg/kg/day, AUC0-24)?
A: 6210 ng·h/mL

Q: What about the Cmax ([4]; male, dog, in vivo, 100 mg/kg/day, Cmax) of the same compound?
A: 459 ng/mL

Q: What about the Tmax [4, 8] of the same compound?
A: 12 h

Q: What about the AUC(0-t) ([4]; male, dog, in vivo, 250 mg/kg, plasma AUC0-24) of the same compound?
A: 18800 ng·h/mL

Q: What about the Cmax ([4]; male, dog, in vivo, 250 mg/kg, plasma Cmax) of the same compound?
A: 1500 ng/mL

Q: What about the AUC0-24 [4, 9] of the same compound?
A: 18800 ng·h/mL

Q: What about the AUC(0-t) ([4]; male, dog, in vivo, 500 mg/kg/day, AUC0-24) of the same compound?
A: 13300 ng·h/mL

Q: What about the Cmax ([4]; male, dog, in vivo, 500 mg/kg/day, Cmax) of the same compound?
A: 1220 ng/mL

Q: What about the Tmax [4, 9] of the same compound?
A: 14 h

Q: What about the AUC(0-t) ([4]; male, dog, in vivo, plasma AUC0-24) of the same compound?
A: 2460 ng·h/mL

Q: And the Cmax ([4]; male, dog, in vivo, plasma Cmax)?
A: 307 ng/mL
